# Laboratory results from patent US11192863B2, “Antiviral compounds and methods” (Biotron Limited, priority 2003, dated 2021).
# Where a name gives a salt, the structure may show the parent alone. Read-outs that look alike come from different tables or passages of the source.
# Legend:
# SARS-CoV E protein = SARS-CoV E protein (Severe acute respiratory syndrome coronavirus, UniProt P59637); format: cell-based
# human coronavirus OC43 = assay: microbe, parasite or virus in culture; format: cell-based; settings: Betacoronavirus 1, OC43, MRC5, 120 h, MRC-5 cells, 5 days post infection
# Vpu protein = Vpu protein (Human immunodeficiency virus type 1 group M subtype B, UniProt P05919); settings: halo of growth score between zero and six; XL1-blue E. coli with pPL-Vpu, no adenine, 37° C.
# MHV (strain MHV-A59) = settings: L929 cells
# 229E-CoV E-protein = 229E-CoV E-protein (Human coronavirus 229E, UniProt P19741); assay: Bacterial bio-assay for 229E-CoV E-protein; settings: halo of growth score; E. coli expressing E protein at 37° C.
SMILES,SARS E protein Inhibition (score/# of times tested) (SARS-CoV E protein),inhibition at 2.5 µM (human coronavirus OC43) [%],Vpu Inhibition (score/# of times tested) (Vpu protein),Percent reduction in Plaque number/# experiments (MHV (strain MHV-A59); 1 uM),Percent reduction in Plaque number/# experiments (MHV (strain MHV-A59); 10 uM),Percent reduction in Plaque number/# experiments (MHV (strain MHV-A59); 20 uM),229E E protein Inhibition (score) (229E-CoV E-protein),Toxic (noted in place of plaque reduction) (MHV (strain MHV-A59); 20 uM)
"N=C(N)NC(=O)/C=C/c1ccc(Cl)cc1Cl [2,4-dichlorocinnamolyguanidine]",0.63/2 score,36,0.63/2 score,43/1%,73/1%,76/1%,–,–
NC(N)=NC(=O)c1ccc2ccccc2c1 [2-napthoylguanidine],1.38/2 score,–,2.7/11 score,34/2%,36/2%,67/2%,0.3,–
N=C(N)NC(=O)/C=C/c1cccc(Cl)c1 [(3-Chlorocinnamoyl)guanidine],3.87/3 score,–,4.38/4 score,39/2%,86/2%,94/1%,0.8,–
"Cc1ccc(C)c(/C=C/C(=O)NC(=N)N)c1 [2,5-dimethylcinnamoylguanidine]",3.63/1 score,–,2.69/2 score,39/3%,91/3%,95/3%,1.6,–
N=C(N)NC(=O)/C=C/c1cccc(F)c1 [3-fluorocinnamoylguanidine],1.50/1 score,–,1.9/2 score,31/1%,93/2%,100/1%,0.5,–
"C/C(=C\c1ccccc1)C(=O)NC(=N)N [(a-Methylcinnamoyl)guanidine, (α-Methylcinnamoyl)guanidine]",0.50/1 score,–,0.6/2 score,51/2%,75/3%,81/2%,1.0,–
CCOc1ccc(/C=C/C(=O)NC(=N)N)cc1 [4-ethoxycinnamoylguanidine],2.48/2 score,–,0.69/2 score,40/1%,92/1%,96/1%,0.1,–
CC(C)(C)Nc1nc(N)c(C(=O)N=C(N)N)nc1Cl [5-tert-butylamino-amiloride],2.01/2 score,–,0.2/7 score,34/4%,84/4%,89/4%,0.3,–
CCOc1ccccc1/C=C/C(=O)NC(=N)N [2-ethoxycinnamoylguanidine],2.57/1 score,–,2.25/2 score,48/2%,85/3%,93/2%,0.6,–
N=C(N)NC(=O)/C=C/c1ccccc1C(F)(F)F [2-(trifluoromethyl)cinnamoylguanidine],1.38/1 score,–,2.4/2 score,13/1%,15/1%,19/1%,1.5,–
CC(C)(C)c1cccc(/C=C/C(=O)NC(=N)N)c1 [3-t-butylcinnamoylguanidine],2.00/1 score,–,2.06/2 score,49/2%,94/3%,–,3.9,Toxic
CCc1ccccc1/C=C/C(=O)NC(=N)N [2-ethylcinnamoylguanidine],1.50/1 score,–,2.75/2 score,34/1%,81/2%,96/1%,0.8,–
N=C(N)NC(=O)/C=C/c1ccc2ccccc2c1 [3-(2-napthyl)acryloylguanidine],3.88/1 score,–,1.56/2 score,40/1%,93/1%,93/1%,3.0,–
N=C(N)NC(=O)/C=C/c1ccc(O)cc1 [(4-Hydroxycinnamoyl)guanidine],1.63/2 score,–,1.1/2 score,13/1%,15/1%,19/1%,0.6,–
N=C(N)NC(=O)/C=C/c1cccc([N+](=O)[O-])c1 [(3-Nitrocinnamoyl)guanidine],1.51/2 score,–,0.9/1 score,42/3%,77/3%,95/2%,0.1,–
Cl.N=C(N)NC(=O)/C=C/c1ccccc1 [cinnamoylguanidine hydrochloride],2.50/1 score,–,0.6/2 score,56/1%,72/2%,85/1%,0.5,–
"CN(C)c1nc(N)c(C(=O)N=C(N)N)nc1Cl [5-(N,N-Dimethyl)amiloride hydrochloride]",1.38/2 score,–,0.1/2 score,17/4%,7/4%,42/4%,1.3,–
"N=C(N)NC(=O)/C=C/C=C/c1cccc(Br)c1 [5-(3′-bromophenyl)penta-2,4-dienoylguanidine]",0.5/1 score,–,2.5/2 score,66/1%,99/2%,–,0.3,–
COc1ccccc1/C=C/C(=O)NC(=N)N [(2-Methoxycinnamoyl)guanidine],0.69/2 score,–,1.7/4 score,23/2%,85/2%,90/2%,1.1,–
